# According to patent publication US20250195530A1, “POLQ INHIBITORS” (ASTRAZENECA AB, priority 2022, published 2025):
# What was measured:
# DLD-1 cells = test: Inhibition of proliferation, DLD-1 BRCA2 wt control (Cell Titre Glo 3D); type: cell-based; settings: Homo sapiens, DLD-1, DLD1 BRCA2 wt cells; mean; read-out: POLQ PD Prolif Lumin DLD1 mean PIC50 (converted)
# Outline: (§1)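 DLD-1 BRCA2−/− (3,000 cells/mL) and parental DLD-1 (1,500 cells/mL) cells in phenol red-free RPMI 1640 with 10% FBS were exposed to a 10-point, three-fold compound series from 10 μM to 0.51 nM at 37 °C, 5% CO2. Medium and compound were replenished on day 6. CellTiter-Glo 3D luminescence was read on day 7 (DLD-1) or day 12 (BRCA2−/−), and IC50 was taken as 50% reduction of maximum signal.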
# DLD-1 BRCA2−/− cells = test: Homologous recombination synthetic lethal inhibition of proliferation, DLD-1 BRCA2-/- (Cell Titre Glo 3D); type: cell-based; settings: Homo sapiens, DLD-1, DLD-1 BRCA2 −/− cells; mean; read-out: POLQ PD Prolif Lumin BRCA2 −/− mean pIC50 (converted)
# Outline: as §1
smiles,measurement,setting,value
"CNCCOc1ccc(-c2nc3c(OC4(C)CC4)ncnc3n2Cc2ncc(C)s2)c(Cl)c1 [Example T34, 2-(3-chloro-4-(6-(1-methylcyclopropoxy)-9-((5-methylthiazol-2-yl)methyl)-9H-purin-8-yl)phenoxy)-N-methylethan-1-amine]",IC50,DLD-1 cells,> 10 µM
same,IC50,DLD-1 BRCA2−/− cells,0.501 µM
"CC1(Oc2ncnc3c2nc(-c2cccc(OCC(=O)O)c2Cl)n3Cc2cccc(Cl)c2)CC1 [Example T41, 2-(2-chloro-3-(9-(3-chlorobenzyl)-6-(1-methylcyclopropoxy)-9H-purin-8-yl)phenoxy)acetic acid]",IC50,DLD-1 cells,> 10 µM
same,IC50,DLD-1 BRCA2−/− cells,> 7.94 µM
"Cc1ccnc(Cn2c(-c3ccc(CC(=O)O)cc3Cl)nc3c(OC4(C)CC4)ncnc32)c1 [Example T49, 2-(3-chloro-4-(6-(1-methylcyclopropoxy)-9-((4-methylpyridin-2-yl)methyl)-9H-purin-8-yl)phenyl)acetic acid]",IC50,DLD-1 cells,> 10 µM
same,IC50,DLD-1 BRCA2−/− cells,> 10 µM
"CC1(Oc2ncnc3c2nc(-c2ccc(OC4CNC4)cc2Cl)n3Cc2cc(Cl)ccn2)CC1 [Example T50, 8-(4-(azetidin-3-yloxy)-2-chlorophenyl)-9-((4-chloropyridin-2-yl)methyl)-6-(1-methylcyclopropoxy)-9H-purine]",IC50,DLD-1 cells,5.01 µM
same,IC50,DLD-1 BRCA2−/− cells,0.251 µM
"CNC(=O)c1ccc(-c2nc3c(OC4(C)CC4)ncnc3n2Cc2cc(C)ccn2)c(Cl)c1 [Example T52, 3-chloro-N-methyl-4-(6-(1-methylcyclopropoxy)-9-((4-methylpyridin-2-yl)methyl)-9H-purin-8-yl)benzamide]",IC50,DLD-1 cells,> 10 µM
same,IC50,DLD-1 BRCA2−/− cells,0.501 µM
"CC(=O)Nc1ccc(-c2nc3c(OC4(C)CC4)ncnc3n2Cc2cc(C)ccn2)c(Cl)c1 [Example T53, N-(3-chloro-4-(6-(1-methylcyclopropoxy)-9-((4-methylpyridin-2-yl)methyl)-9H-purin-8-yl)phenyl)acetamide]",IC50,DLD-1 cells,> 10 µM
same,IC50,DLD-1 BRCA2−/− cells,0.316 µM
"Cc1ccnc(Cn2c(-c3cccc(CC(N)=O)c3Cl)nc3c(OC4(C)CC4)ncnc32)c1 [Example T56, 2-(2-chloro-3-(6-(1-methylcyclopropoxy)-9-((4-methylpyridin-2-yl)methyl)-9H-purin-8-yl)phenyl)acetamide]",IC50,DLD-1 cells,> 10 µM
same,IC50,DLD-1 BRCA2−/− cells,0.794 µM
"CC1(Oc2ncnc3c2nc(-c2ccc(OCCCO)cc2Cl)n3Cc2cc(Cl)ccn2)CC1 [Example T64, 3-(3-chloro-4-(9-((4-chloropyridin-2-yl)methyl)-6-(1-methylcyclopropoxy)-9H-purin-8-yl)phenoxy)propan-1-ol]",IC50,DLD-1 cells,> 10 µM
same,IC50,DLD-1 BRCA2−/− cells,0.158 µM
"CNCCOc1ccc(-c2nc3c(OC4(C)CC4)ncnc3n2Cc2cc(Cl)ccn2)c(Cl)c1 [Example T67, 2-(3-chloro-4-(9-((4-chloropyridin-2-yl)methyl)-6-(1-methylcyclopropoxy)-9H-purin-8-yl)phenoxy)-N-methylethan-1-amine]",IC50,DLD-1 cells,> 10 µM
same,IC50,DLD-1 BRCA2−/− cells,0.126 µM
"CNCc1ccc(-c2nc3c(OC4(C)CC4)ncnc3n2Cc2cc(C)ccn2)c(Cl)c1 [Example T68, 1-(3-chloro-4-(6-(1-methylcyclopropoxy)-9-((4-methylpyridin-2-yl)methyl)-9H-purin-8-yl)phenyl)-N-methylmethanamine]",IC50,DLD-1 cells,> 10 µM
same,IC50,DLD-1 BRCA2−/− cells,1 µM
"Cc1ccnc(Cn2c(-c3ccc(OCCN)cc3Cl)nc3c(OC4(C)CC4)ncnc32)c1 [Example T69, 2-(3-chloro-4-(6-(1-methylcyclopropoxy)-9-((4-methylpyridin-2-yl)methyl)-9H-purin-8-yl)phenoxy)ethan-1-amine]",IC50,DLD-1 cells,> 10 µM
same,IC50,DLD-1 BRCA2−/− cells,0.2 µM
"Cc1cnc(Cn2c(-c3ccc(O[C@H]4CCNC4)cc3Cl)nc3c(OC4(C)CC4)ncnc32)s1 [Example T70, (S)-2-((8-(2-chloro-4-(pyrrolidin-3-yloxy)phenyl)-6-(1-methylcyclopropoxy)-9H-purin-9-yl)methyl)-5-methylthiazole]",IC50,DLD-1 cells,> 10 µM
same,IC50,DLD-1 BRCA2−/− cells,0.631 µM
